Converted amounts (≈) assume the structure as drawn.
What was measured:
Assay type in all cases: functional
Staphylococcus aureus = assay: Antimicrobial activity against Staphylococcus aureus ATCC 29213 assessed as inhibition of visible growth of bacteria incubated for 20 hrs by broth microdilution method
Enterococcus faecium = assay: Antimicrobial activity against Enterococcus faecium QF31 harboring erythromycin resistance rRNA methylase B and chloramphenicol-florfenicol resistance methylase assessed as inhibition of visible growth of bacteria incubated for 20 hrs by broth microdilution method
Enterococcus faecalis = assay: microbe, parasite or virus in culture; details: SF23-1, time 20 hrs
Description: Antimicrobial activity against Enterococcus faecalis SF23-1 harboring erythromycin-resistance rRNA methylase B, tetracycline efflux protein L and chloramphenicol-florfenicol resistance methylase assessed as inhibition of visible growth of bacteria incubated for 20 hrs by broth microdilution method

Streptococcus suis = assay: Antimicrobial activity against Streptococcus suis P1/7 assessed as inhibition of visible growth of bacteria incubated for 20 hrs by broth microdilution method

SMILES | MIC (Staphylococcus aureus) [µg/mL] | MIC (Enterococcus faecium) [µg/mL] | MIC (Enterococcus faecalis) [µg/mL] | MIC (Streptococcus suis) [µg/mL]
CC1C/C(=C\c2ccc(-c3ccc([N+](=O)[O-])cc3)o2)c2nc3ccccc3c(C(=O)O)c2C1 (racemic) | 64 (≈ 145 µM) | 64 (≈ 145 µM) | > 64 | > 64
CC1C/C(=C\c2ccc(-c3cccc(Cl)c3Cl)o2)c2nc3ccccc3c(C(=O)O)c2C1 (racemic) | 2 (≈ 4.31 µM) | 8 (≈ 17.2 µM) | 8 (≈ 17.2 µM) | 64 (≈ 138 µM)
CC1C/C(=C\c2ccc(-c3c(Cl)cc(Cl)cc3Cl)cc2)c2nc3ccccc3c(C(=O)O)c2C1 (racemic) | 2 (≈ 3.93 µM) | 8 (≈ 15.7 µM) | 4 (≈ 7.86 µM) | > 64
CC1C/C(=C\c2cccc(-c3cccc(Cl)c3Cl)c2)c2nc3ccccc3c(C(=O)O)c2C1 (racemic) | 4 (≈ 8.43 µM) | 8 (≈ 16.9 µM) | 8 (≈ 16.9 µM) | > 64
COc1ccc2nc3c(c(C(=O)O)c2c1)CC(C)C/C3=C\c1ccc(-c2ccc(Cl)c(C(F)(F)F)c2)o1 (racemic) | 32 (≈ 60.6 µM) | > 64 | 64 (≈ 121 µM) | 64 (≈ 121 µM)
CC1C/C(=C\c2cccc(-c3ccc(Cl)c(C(F)(F)F)c3)c2)c2nc3cc(N4CCOCC4)ccc3c(C(=O)O)c2C1 (racemic) | 8 (≈ 13.5 µM) | 4 (≈ 6.74 µM) | 32 (≈ 54 µM) | 8 (≈ 13.5 µM)
CC1(C)C/C(=C\c2ccc(-c3ccc(Cl)c(C(F)(F)F)c3)o2)c2nc3ccccc3c(C(=O)O)c2C1 | 32 (≈ 62.5 µM) | 8 (≈ 15.6 µM) | 4 (≈ 7.81 µM) | 32 (≈ 62.5 µM)
CC1C/C(=C\c2cccc(-c3ccc(Cl)c(C(F)(F)F)c3)c2)c2nc3ccc(O)cc3c(C(=O)O)c2C1 (racemic) | 8 (≈ 15.3 µM) | 8 (≈ 15.3 µM) | 16 (≈ 30.5 µM) | 4 (≈ 7.63 µM)
O=C(O)c1c2c(nc3ccccc13)/C(=C/c1ccc(-c3cccc(Cl)c3)o1)CCC2 | 16 (≈ 38.5 µM) | 16 (≈ 38.5 µM) | > 64 | 16 (≈ 38.5 µM)
CC1C/C(=C\c2cccc(-c3ccc(Cl)c(C(F)(F)F)c3)c2)c2nc3cc(N4CCN(C)CC4)ccc3c(C(=O)O)c2C1 (racemic) | 16 (≈ 26.4 µM) | 8 (≈ 13.2 µM) | 8 (≈ 13.2 µM) | 8 (≈ 13.2 µM)
COc1ccc2nc3c(c(C(=O)O)c2c1)CC(C)C/C3=C\c1ccc(-c2ccc(Cl)c(C(F)(F)F)c2)cc1 (racemic) | 4 (≈ 7.44 µM) | 4 (≈ 7.44 µM) | 4 (≈ 7.44 µM) | > 64
COc1ccc2nc3c(c(C(=O)O)c2c1)CC(C)C/C3=C\c1cccc(NC(=O)c2cccc(Cl)c2Cl)c1 (racemic) | > 64 | > 64 | > 64 | > 64
CC1C/C(=C\c2cccc(-c3ccc(Cl)c(C(F)(F)F)c3)c2)c2nc3ccccc3c(C(=O)O)c2C1 (racemic) | 2 (≈ 3.94 µM) | 4 (≈ 7.87 µM) | 4 (≈ 7.87 µM) | > 64
Cc1cc(/C=C2\CC(C)Cc3c2nc2ccccc2c3C(=O)O)cc(C)c1O (racemic) | > 64 | > 64 | > 64 | > 64
CC1C/C(=C\c2cccc(-c3ccc(Cl)c(C(F)(F)F)c3)c2)c2nc3ccccc3cc2C1 (racemic) | > 64 | > 64 | > 64 | > 64
CCCCCCc1ccc(-c2ccc(/C=C3\CC(C)Cc4c3nc3ccc(OC)cc3c4C(=O)O)cc2)cc1 (racemic) | 16 (≈ 30.8 µM) | 4 (≈ 7.7 µM) | 8 (≈ 15.4 µM) | 32 (≈ 61.6 µM)
Cc1ccc(-c2ccc(/C=C3\CC(C)Cc4c3nc3ccccc3c4C(=O)O)o2)c(Cl)c1 (racemic) | 4 (≈ 9.01 µM) | 16 (≈ 36 µM) | 8 (≈ 18 µM) | > 64
COc1ccc(-c2ccc(/C=C3\CC(C)Cc4c3nc3ccccc3c4C(=O)O)o2)cc1 (racemic) | > 64 | 16 (≈ 37.6 µM) | > 64 | 32 (≈ 75.2 µM)
CC1C/C(=C\c2ccco2)c2nc3ccccc3c(C(=O)O)c2C1 (racemic) | > 64 | 16 (≈ 50.1 µM) | > 64 | 32 (≈ 100 µM)

— ChEMBL document CHEMBL6078677, “Discovery and optimization of tetrahydroacridine derivatives as a novel class of antibiotics against multidrug-resistant Gram-positive pathogens by targeting type I signal peptidase and disrupting bacterial membrane” (Eur J Med Chem, 2025)
